The experiment has as its system AKR/Lw mice, AKR lymphoma ip, median survival T/C. Kind of experiment: NCI In Vivo Anticancer Drug Screen. Data for tumor model Lymphoma AKR (Transplanted) (intraperitoneal) in AKR/Lw mice. To be noted: endpoint: median survival time, higher = longer survival. As to the method:
The antitumor activity of compounds was measured in mice bearing transplantable tumors. Survival or tumor size were measured and the results are expressed as the measurement made in the treated group (T) divided by the measurement made in the vehicle treated control group (C). The tumor model used in this assay is Lymphoma AKR (Transplanted) (intraperitoneal) in AKR/Lw mice

[1] abbreviates: dose: 25.0 mg/kg/injection, schedule: Q01DX001 (ip), vehicle: saline.
Where [2] appears, read: dose: 25.0 mg/kg/injection, schedule: Q04DX003 (ip), vehicle: saline.
The mark [3] stands for this setting: dose: 50.0 mg/kg/injection, schedule: Q01DX001 (ip), vehicle: saline.
Setting [4] is: dose: 50.0 mg/kg/injection, schedule: Q04DX003 (ip), vehicle: saline.
[5] abbreviates: dose: 200.0 mg/kg/injection, schedule: Q01DX001 (ip), vehicle: saline.
The mark [6] stands for this setting: dose: 200.0 mg/kg/injection, schedule: Q01DX009 (ip), vehicle: saline.
Where [7] appears, read: dose: 400.0 mg/kg/injection, schedule: Q01DX001 (ip), vehicle: saline.
Setting [8] is: dose: 100.0 mg/kg/injection, schedule: Q01DX001 (ip), vehicle: Klucel (hydroxypropylcellulose) (HPC).
Setting [9] is: dose: 200.0 mg/kg/injection, schedule: Q01DX001 (ip), vehicle: Klucel (hydroxypropylcellulose) (HPC).
Setting [10] is: dose: 400.0 mg/kg/injection, schedule: Q01DX001 (ip), vehicle: Klucel (hydroxypropylcellulose) (HPC).

Where “and” joins values, the source holds several entries; their conditions need not be identical. Equal entries are not always repeated. Inconclusive results and toxic doses are left out.

Regarding `COc1ccc2cc1Oc1ccc(cc1)C[C@H]1c3cc(c(OC)cc3CCN1C)Oc1c(OC)c(OC)cc3c1[C@H](C2)N(C)CC3`, the T/C is, setting by setting: (dose: 6.2 mg/kg/injection, schedule: Q01DX009 (ip), vehicle: Klucel (hydroxypropylcellulose) (HPC)) 110 % of control; (dose: 7.5 mg/kg/injection, schedule: Q01DX009 (ip), vehicle: saline) 90 % of control; (dose: 12.5 mg/kg/injection, schedule: Q01DX009 (ip), vehicle: Klucel (hydroxypropylcellulose) (HPC)) 107 % of control and 113 % of control; (dose: 12.5 mg/kg/injection, schedule: Q01DX009 (ip), vehicle: saline) 111 % of control; (dose: 25.0 mg/kg/injection, schedule: Q01DX001 (ip), vehicle: Klucel (hydroxypropylcellulose) (HPC)) 94 % of control (2×) and 97 % of control; under setting [1], 95 % of control. Further, the T/C was 97 % of control and 100 % of control (2×) (dose: 25.0 mg/kg/injection, schedule: Q01DX009 (ip), vehicle: Klucel (hydroxypropylcellulose) (HPC)); 94 % of control (dose: 25.0 mg/kg/injection, schedule: Q01DX009 (ip), vehicle: saline); 87 % of control (dose: 25.0 mg/kg/injection, schedule: Q04DX003 (ip), vehicle: Klucel (hydroxypropylcellulose) (HPC)); 88 % of control and 109 % of control under setting [2]; 100 % of control (dose: 32.0 mg/kg/injection, schedule: Q04DX003 (ip), vehicle: water); 94 % of control and 110 % of control (dose: 50.0 mg/kg/injection, schedule: Q01DX001 (ip), vehicle: Klucel (hydroxypropylcellulose) (HPC)). Also, the T/C is 95 % of control under setting [3]; 94 % of control and 107 % of control (dose: 50.0 mg/kg/injection, schedule: Q01DX009 (ip), vehicle: Klucel (hydroxypropylcellulose) (HPC)); 94 % of control and 116 % of control (dose: 50.0 mg/kg/injection, schedule: Q01DX009 (ip), vehicle: saline); 87 % of control (dose: 50.0 mg/kg/injection, schedule: Q04DX003 (ip), vehicle: Klucel (hydroxypropylcellulose) (HPC)); 97 % of control and 111 % of control and 114 % of control under setting [4]; 96 % of control (dose: 64.0 mg/kg/injection, schedule: Q04DX003 (ip), vehicle: water). Also, the T/C is 94 % of control (dose: 75.0 mg/kg/injection, schedule: Q01DX001 (ip), vehicle: Klucel (hydroxypropylcellulose) (HPC)); 100 % of control (dose: 100.0 mg/kg/injection, schedule: Q01DX009 (ip), vehicle: Klucel (hydroxypropylcellulose) (HPC)); 100 % of control and 106 % of control (dose: 100.0 mg/kg/injection, schedule: Q01DX009 (ip), vehicle: saline); 97 % of control (dose: 100.0 mg/kg/injection, schedule: Q04DX003 (ip), vehicle: Klucel (hydroxypropylcellulose) (HPC)); 98 % of control and 100 % of control and 111 % of control (dose: 100.0 mg/kg/injection, schedule: Q04DX003 (ip), vehicle: saline); 107 % of control (dose: 128.0 mg/kg/injection, schedule: Q04DX003 (ip), vehicle: water). Besides, the T/C was 87 % of control and 104 % of control and 111 % of control under setting [5]; 88 % of control and 94 % of control under setting [6]; 100 % of control (dose: 200.0 mg/kg/injection, schedule: Q04DX003 (ip), vehicle: Klucel (hydroxypropylcellulose) (HPC)); 97 % of control (dose: 200.0 mg/kg/injection, schedule: Q04DX003 (ip), vehicle: saline); 100 % of control (dose: 256.0 mg/kg/injection, schedule: Q04DX003 (ip), vehicle: water); 93 % of control and 100 % of control (2×) under setting [7].
As for `CC[CH](C)[Hg][c]1cccc2ccccc12` (stereo not given), the T/C was 91 % of control under setting [8] and 86 % of control under setting [9].
For the compound `CCCn1c(=S)[nH]c2ccccc2c1=O`, the T/C was 103 % of control under setting [8], 94 % of control under setting [9] and 100 % of control under setting [10].
On to `c1ccc(C[N+](Cc2ccccc2)=C2CCCCC2)cc1`, for which the T/C reads like this: (dose: 100.0 mg/kg/injection, schedule: Q01DX001 (ip), vehicle: saline) 111 % of control; under setting [5], 114 % of control.
For `OCC1=C(CO)C2(Cl)C(Cl)=C(Cl)C1(Cl)C2(Cl)Cl`, the T/C is, setting by setting: under setting [9], 95 % of control; under setting [10], 91 % of control.
For the compound `CC(CN1CC(=O)NC(=O)C1)N1CC(=O)NC(=O)C1` (stereo not given), the T/C was 103 % of control (dose: 0.5 mg/kg/injection, schedule: Q01DX009 (ip), vehicle: saline); 116 % of control (dose: 1.6 mg/kg/injection, schedule: Q01DX009 (ip), vehicle: saline); 109 % of control (dose: 2.0 mg/kg/injection, schedule: Q01DX009 (ip), vehicle: saline); 90 % of control (dose: 2.5 mg/kg/injection, schedule: Q01DX009 (ip), vehicle: saline); 110 % of control and 113 % of control (dose: 3.1 mg/kg/injection, schedule: Q01DX009 (ip), vehicle: saline); 181 % of control (dose: 4.0 mg/kg/injection, schedule: Q01DX009 (ip), vehicle: saline). The T/C was 106 % of control (dose: 5.0 mg/kg/injection, schedule: Q01DX009 (ip), vehicle: saline); 120 % of control (dose: 10.0 mg/kg/injection, schedule: Q01DX009 (ip), vehicle: saline); 88 % of control and 90 % of control (dose: 12.5 mg/kg/injection, schedule: Q04DX003 (ip), vehicle: saline); 150 % of control (dose: 20.0 mg/kg/injection, schedule: Q01DX009 (ip), vehicle: saline); 94 % of control under setting [1]; 105 % of control and 107 % of control under setting [2]. The T/C is, setting by setting: (dose: 30.0 mg/kg/injection, schedule: Q01DX009 (ip), vehicle: saline) 152 % of control; (dose: 35.0 mg/kg/injection, schedule: Q01DX009 (ip), vehicle: saline) 152 % of control; under setting [3], 97 % of control and 106 % of control; under setting [4], 92 % of control and 100 % of control; (dose: 75.0 mg/kg/injection, schedule: Q04DX003 (ip), vehicle: saline) 94 % of control; (dose: 150.0 mg/kg/injection, schedule: Q01DX001 (ip), vehicle: water) 108 % of control. In addition, the T/C is, setting by setting: (dose: 150.0 mg/kg/injection, schedule: Q04DX003 (ip), vehicle: saline) 123 % of control; under setting [6], 108 % of control; (dose: 300.0 mg/kg/injection, schedule: Q01DX009 (ip), vehicle: saline) 106 % of control; (dose: 300.0 mg/kg/injection, schedule: Q04DX003 (ip), vehicle: saline) 100 % of control; (dose: 400.0 mg/kg/injection, schedule: Q01DX009 (ip), vehicle: saline) 100 % of control; (dose: 600.0 mg/kg/injection, schedule: Q01DX001 (ip), vehicle: water) 111 % of control.
Consider `CCOC(=O)CCCSCCCC(=O)OCC`, for which the T/C under setting [5] is 89 % of control and the T/C under setting [7] is 95 % of control.

(Values after PubChem BioAssay AID190 (DTP/NCI, 2004).)
